Values joined by “and” are separate entries in the source; they are usually repeats but may differ in a detail not shown here. Identical values can stand only once. Like-named read-outs stand apart in the source and are kept apart here.
Legend:
VEGFR-2 [1] = target: T1, VEGFR-2 (Homo sapiens, UniProt P35968); assay: cell-based; format: cell-based; conditions: for inhibition at 10 µM: PaCa-2, PaCa2; for VEGFR-2 pg/mL ± SEM PaCa2: at 10 μM, control 326.80 ± 1.9
T1 construct: endogenous in cells; host or cells: HCT116, PaCa2, MCF7 (human cancer cell lines, ATCC origin)

TNF-α [2] = assay: TNF-α inhibitory properties (ELISA), HCT116 cell lysate; format: cell-based, human; conditions: at 10 μM; for TNF-α pg/mL (± SEM) HCT116: control 95.74 ± 0.5
HCT116 3D-spheroid = HCT116 3D-spheroid at 50 μM, relative to control
[3] = system: A549 (lung) cancer cell line; assay: 2D-monolayer antiproliferation (MTT) against A549; format: cell-based, human; conditions: for IC50: Homo sapiens, MTT, 72 h incubation, A549 lung, read-out: IC50, μM ± SEM A549; for SI (selectivity index) A549: IC50 of RPE1 normal cell/IC50 of A549
[4] = system: RPE1 (normal human immortalized retinal pigment epithelial cell line); assay: cells; format: cell-based; conditions: Homo sapiens, RPE-1; MTT, normal RPE1 cell; read-out: IC50, μM ± SEM RPE1
[5] = system: PaCa2 (pancreatic) cancer cell line; assay: 2D-monolayer antiproliferation (MTT) against PaCa2; format: cell-based, human; conditions: for 1/(observed property): 1/observed IC50 (μM), PaCa2; for IC50: Homo sapiens, PaCa-2, MTT, 72 h incubation, PaCa2 pancreatic, read-out: IC50, μM ± SEM PaCa2; for SI (selectivity index) PaCa2: IC50 of RPE1 normal cell/IC50 of PaCa2
[6] = system: MCF7 (breast) cancer cell line; assay: 2D-monolayer antiproliferation (MTT) against MCF7; format: cell-based, human; conditions: for IC50: Homo sapiens, MTT, 72 h incubation, MCF7 breast, read-out: IC50, μM ± SEM MCF7; for SI (selectivity index) MCF7: IC50 of RPE1 normal cell/IC50 of MCF7
[7] = system: HCT116 (colon) cancer cell line; assay: 2D-monolayer antiproliferation (MTT) against HCT116; format: cell-based, human; conditions: for IC50: Homo sapiens, HCT-116; for SI (selectivity index) HCT116: IC50 of RPE1 normal cell/IC50 of HCT116
COX-1 = target: T2, COX-1 (Ovis aries, UniProt P05979); assay: biochemical; conditions: 3 replicates, read-out: % Inhibition of COX-1 ± SEM
T2 construct: purchased BioVision incorporated USA K548–100
T2 sequence (P05979 25-600): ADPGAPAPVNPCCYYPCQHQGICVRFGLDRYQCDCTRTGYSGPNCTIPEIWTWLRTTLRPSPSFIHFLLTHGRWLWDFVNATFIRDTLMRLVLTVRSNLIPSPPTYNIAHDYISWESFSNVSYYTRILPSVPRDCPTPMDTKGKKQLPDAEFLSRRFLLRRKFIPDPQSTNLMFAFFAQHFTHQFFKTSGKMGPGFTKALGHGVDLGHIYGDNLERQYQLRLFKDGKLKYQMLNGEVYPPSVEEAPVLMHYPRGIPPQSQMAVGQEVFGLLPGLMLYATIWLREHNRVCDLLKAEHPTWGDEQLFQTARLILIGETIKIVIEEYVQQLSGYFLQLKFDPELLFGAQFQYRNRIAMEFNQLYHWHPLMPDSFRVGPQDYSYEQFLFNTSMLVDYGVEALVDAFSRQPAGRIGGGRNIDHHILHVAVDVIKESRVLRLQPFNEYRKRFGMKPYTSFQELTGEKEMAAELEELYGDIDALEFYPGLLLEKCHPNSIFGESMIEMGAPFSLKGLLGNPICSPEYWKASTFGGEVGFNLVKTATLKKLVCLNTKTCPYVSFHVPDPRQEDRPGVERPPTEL

COX-2 = target: T3, COX-2 (Homo sapiens, UniProt P35354); assay: biochemical; conditions: for inhibition at 10 µM: 3 replicates, read-out: % Inhibition of COX-2 ± SEM; for SI (selectivity index, COX-2/COX-1): at 10 μM
T3 construct: purchased BioVision incorporated USA K548–100
T3 sequence (P35354 18-604): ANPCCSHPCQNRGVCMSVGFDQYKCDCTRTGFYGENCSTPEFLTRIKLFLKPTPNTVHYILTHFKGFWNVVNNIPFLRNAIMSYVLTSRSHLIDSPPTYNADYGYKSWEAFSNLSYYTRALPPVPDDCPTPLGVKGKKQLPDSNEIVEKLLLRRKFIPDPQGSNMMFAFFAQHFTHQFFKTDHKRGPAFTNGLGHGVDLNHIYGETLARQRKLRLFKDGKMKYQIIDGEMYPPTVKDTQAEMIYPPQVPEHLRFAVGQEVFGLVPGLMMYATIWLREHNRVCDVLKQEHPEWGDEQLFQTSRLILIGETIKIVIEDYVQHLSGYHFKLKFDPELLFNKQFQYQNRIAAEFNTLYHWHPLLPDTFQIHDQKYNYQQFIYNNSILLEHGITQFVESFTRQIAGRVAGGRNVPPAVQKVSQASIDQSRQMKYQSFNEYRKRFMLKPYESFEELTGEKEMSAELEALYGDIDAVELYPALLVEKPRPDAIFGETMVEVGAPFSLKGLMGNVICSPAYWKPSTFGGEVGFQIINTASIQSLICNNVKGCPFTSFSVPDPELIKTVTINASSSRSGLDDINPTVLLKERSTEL

TNF-α [8] = assay: TNF-α inhibitory properties (ELISA), PaCa2 cell lysate; format: cell-based, human; conditions: at 10 μM; for TNF-α pg/mL (± SEM) PaCa2: control 111.8 ± 2.0
TNF-α [9] = assay: TNF-α inhibitory properties (ELISA), MCF7 cell lysate; format: cell-based, human; conditions: at 10 μM; for TNF-α pg/mL (± SEM) MCF7: control 83.26 ± 1.1
VEGFR-2 [10] = target: T1, VEGFR-2; assay: cell-based; format: cell-based; conditions: for inhibition at 10 µM: HCT-116, HCT116; for VEGFR-2 pg/mL ± SEM HCT116: at 10 μM, control 317.80 ± 3.5
VEGFR-2 [11] = target: T1, VEGFR-2; assay: cell-based; format: cell-based; conditions: for inhibition at 10 µM: MCF7; for VEGFR-2 pg/mL ± SEM MCF7: at 10 μM, control 258.70 ± 2.3
CAM blood vessel network = assay: Chick chorioallantoic membrane (CAM) anti-angiogenic assay; format: in vivo, chicken; conditions: 20 μL of 660 μM, 3 days; for Diameter of blood vessel (μm ± SEM): CAM test, control 459.7 ± 13.8
Procedure: CAM assay is an established xenograft technique for investigating the angiogenic effect due to the high resemblance of the human vascularized epithelium basement membrane with that of the chorioallantoic layer containing mainly type IV collagen[84]–[86].
Fig. 10 Images of light microscopy for anti-angiogenic evaluation of the tested compounds using CAM assay. […] The glass slide was placed on the surface of the CAM blood vessel network and left in an incubator at 37 °C for 3 days. The CAM blood vessel network was carefully cut and imaged under a light microscope (40 × magnification).
Fertilized white chicken eggs were incubated in a 37 °C incubator with constant humidity. On day 8, a small squared window was opened allowing the detachment of the growing CAM and shell. The opening was covered with an elastic bandage. […] The CAM was then sealed with a bandage and placed back in the incubator. CAMs were examined daily until day 12 (3 days), the vascularized membranes were then cut around the glass slide and fixed in 5% formalin. Images were taken with an Evos microscope at 40x and 100x magnification^9. Main blood vessel in the microscopic images of controls and samples were quantified by imageJ and analyzed for significant differences (n = 4).

[12] = system: PaCa2 (pancreatic) cancer cell line; design: method as in Reference 30; conditions: standard drug sunitinib; ref Reference 30; cited from earlier work
[13] = MTT, 72 h incubation, HCT116 colon, read-out: IC50, μM ± SEM HCT116
[14] = log of observed IC50 (μM), HCT116, read-out: Log(observed property) (converted)

T1 sequence (P35968 20-1356): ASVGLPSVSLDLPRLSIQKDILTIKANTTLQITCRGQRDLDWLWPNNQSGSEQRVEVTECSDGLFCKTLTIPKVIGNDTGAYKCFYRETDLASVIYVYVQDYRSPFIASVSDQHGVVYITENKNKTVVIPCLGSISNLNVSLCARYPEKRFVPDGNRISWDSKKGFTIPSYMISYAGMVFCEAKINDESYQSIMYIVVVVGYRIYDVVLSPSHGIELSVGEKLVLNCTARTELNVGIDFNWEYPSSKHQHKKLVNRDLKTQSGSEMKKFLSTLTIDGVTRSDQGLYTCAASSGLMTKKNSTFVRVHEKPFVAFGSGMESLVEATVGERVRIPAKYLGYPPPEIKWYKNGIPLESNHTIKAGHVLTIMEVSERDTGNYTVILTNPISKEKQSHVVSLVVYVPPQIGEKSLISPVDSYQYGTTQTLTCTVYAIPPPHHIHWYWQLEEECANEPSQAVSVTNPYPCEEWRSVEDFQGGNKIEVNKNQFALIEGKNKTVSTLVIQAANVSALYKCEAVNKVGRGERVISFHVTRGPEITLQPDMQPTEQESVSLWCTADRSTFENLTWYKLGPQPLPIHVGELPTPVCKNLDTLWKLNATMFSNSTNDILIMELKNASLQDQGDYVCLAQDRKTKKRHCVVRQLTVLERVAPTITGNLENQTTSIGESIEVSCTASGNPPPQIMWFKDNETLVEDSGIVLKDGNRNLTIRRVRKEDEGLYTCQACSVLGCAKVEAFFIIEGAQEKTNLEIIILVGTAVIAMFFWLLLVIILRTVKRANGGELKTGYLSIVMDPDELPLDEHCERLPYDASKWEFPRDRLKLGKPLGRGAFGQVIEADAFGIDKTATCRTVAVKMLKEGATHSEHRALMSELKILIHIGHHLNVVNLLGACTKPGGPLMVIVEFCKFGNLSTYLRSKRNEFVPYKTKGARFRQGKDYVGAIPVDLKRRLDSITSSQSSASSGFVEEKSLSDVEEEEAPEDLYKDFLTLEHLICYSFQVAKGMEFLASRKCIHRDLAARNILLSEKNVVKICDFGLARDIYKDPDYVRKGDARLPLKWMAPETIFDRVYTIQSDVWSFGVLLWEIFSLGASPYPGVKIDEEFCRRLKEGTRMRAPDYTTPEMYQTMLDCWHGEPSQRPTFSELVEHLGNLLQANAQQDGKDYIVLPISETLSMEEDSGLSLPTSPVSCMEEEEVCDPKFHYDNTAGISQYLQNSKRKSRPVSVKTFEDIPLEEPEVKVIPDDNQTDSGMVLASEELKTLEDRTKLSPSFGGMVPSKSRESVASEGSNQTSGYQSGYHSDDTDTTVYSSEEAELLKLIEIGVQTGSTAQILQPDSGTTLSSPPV

| SMILES | inhibition at 10 µM (VEGFR-2 [1]) [%] | VEGFR-2 pg/mL ± SEM PaCa2 (VEGFR-2 [1]) [pg/mL] | TNF-α pg/mL (± SEM) HCT116 (TNF-α [2]) [pg/mL] | %CT (± SEM), percentage cytotoxicity (HCT116 3D-spheroid) | IC50 [3] [µM] | SI (selectivity index) A549 [3] | IC50 [4] [µM] | 1/(observed property) [5] | IC50 [5] [µM] | SI (selectivity index) PaCa2 [5] | IC50 [6] [µM] | SI (selectivity index) MCF7 [6] | IC50 [7, 13] [µM] | IC50 [7, 14] [µM] | SI (selectivity index) HCT116 [7] | inhibition at 10 µM (COX-1) [%] | inhibition at 10 µM (COX-2) [%] | TNF-α pg/mL (± SEM) PaCa2 (TNF-α [8]) [pg/mL] | TNF-α % inhibition MCF7 (TNF-α [9]) [%] | TNF-α pg/mL (± SEM) MCF7 (TNF-α [9]) [pg/mL] | also measured |
| --- | --- | --- | --- | --- | --- | --- | --- | --- | --- | --- | --- | --- | --- | --- | --- | --- | --- | --- | --- | --- | --- |
| CCOP(=O)(OCC)N1C/C(=C\c2ccc(Cl)cc2)C(=O)C2(C1)C(c1ccc(Cl)cc1)CN(C)C21C(=O)Nc2ccc(C)cc21 (stereo not shown) [Compound 17k, Diethyl (E)-(5′′-(4-chlorobenzylidene)-4′-(4-chlorophenyl)-1′,5-dimethyl-2,4′′-dioxodispiro[indoline-3,2′-pyrrolidine-3′,3′′-piperidin]-1′′-yl)phosphonate] | 76.6 | 76.40 ± 0.9 | 26.48 ± 1.5 | 53.1% and 53.1 ± 2.2% | 6.47 ± 0.385 | 1.3 | 8.15 ± 0.507 | 0.1502 | 6.66 ± 0.095 | 1.2 | 4.98 ± 0.095 | 1.6 | 3.281 ± 0.022 | 3.28 | 2.5 | 57.7 ± 1 | 55 ± 1.6 | 24.3 ± 1.4 | 72.6 | 22.85 ± 1.8 | inhibition at 10 µM (VEGFR-2 [10]): 78.7%; VEGFR-2 pg/mL ± SEM HCT116 (VEGFR-2 [10]): 67.80 ± 1.3 pg/mL; inhibition at 10 µM (VEGFR-2 [11]): 66.6%; VEGFR-2 pg/mL ± SEM MCF7 (VEGFR-2 [11]): 86.40 ± 0.5 pg/mL |
| CCOP(=O)(OCC)N1C/C(=C\c2ccc(OC)cc2)C(=O)C2(C1)C(c1ccc(OC)cc1)CN(C)C21C(=O)Nc2ccccc21 (stereo not shown) [Compound 17p, Diethyl (E)-[5′′-(4-methoxybenzylidene)-4′-(4-methoxyphenyl)-1′-methyl-2,4′′-dioxodispiro[indoline-3,2′-pyrrolidine-3′,3′′-piperidin]-1′′-yl]phosphonate] | 93.3 | 21.76 ± 0.4 | 26.21 ± 1.3 | 68.3% and 68.3 ± 0.6% | 13 ± 0.284 | 1.1 | 14.2 ± 0.638 | 0.1367 | 7.32 ± 0.226 | 1.9 | 5.43 ± 0.14 | 2.6 | 5.51 ± 0.138 | 5.51 | 2.6 | 51.1 ± 2.7 | 53.5 ± 2.1 | 25.8 ± 1.8 | 65.7 | 28.56 ± 2.9 | Diameter of blood vessel (μm ± SEM) (CAM blood vessel network): 79.3 ± 3.3 μm; SI (selectivity index, COX-2/COX-1) (COX-2): 1.10; inhibition at 10 µM (VEGFR-2 [10]): 90%; VEGFR-2 pg/mL ± SEM HCT116 (VEGFR-2 [10]): 31.80 ± 0.8 pg/mL; inhibition at 10 µM (VEGFR-2 [11]): 81.3%; VEGFR-2 pg/mL ± SEM MCF7 (VEGFR-2 [11]): 48.30 ± 0.4 pg/mL |
| CCOP(=O)(OCC)N1C/C(=C\c2cccs2)C(=O)C2(C1)C(c1cccs1)CN(C)C21C(=O)Nc2ccc(Cl)cc21 (stereo not shown) [Compound 17s, Diethyl (E)-[5-chloro-1′-methyl-2,4′′-dioxo-4′-(thiophen-2-yl)-5′′-(thiophen-2-ylmethylene)dispiro[indoline-3,2′-pyrrolidine-3′,3′′-piperidin]-1′′-yl]phosphonate] | 91.9 | 26.50 ± 0.5 | 86.57 ± 2.0 | 77.9% and 77.9 ± 1.2% | 8.1 ± 0.091 | 1.3 | 10.2 ± 0.545 | 0.163 | 6.13 ± 0.131 | 1.7 | 4.64 ± 0.068 | 2.2 | 5.42 ± 0.288 | 5.42 | 1.9 | 53.8 ± 2.8 | 56.3 ± 2.3 | 90.6 ± 2.8 | 1.9 | 81.64 ± 3.7 | TNF-α % inhibition HCT116 (TNF-α [2]): 9.6%; % Inhibition of the blood vessels in CAM test (CAM blood vessel network): 86.7%; Diameter of blood vessel (μm ± SEM) (CAM blood vessel network): 61.3 ± 4.3 μm; SI (selectivity index, COX-2/COX-1) (COX-2): 0.83; TNF-α % inhibition PaCa2 (TNF-α [8]): 19.0%; inhibition at 10 µM (VEGFR-2 [10]): 83.1%; VEGFR-2 pg/mL ± SEM HCT116 (VEGFR-2 [10]): 53.80 ± 0.9 pg/mL; inhibition at 10 µM (VEGFR-2 [11]): 81.6%; VEGFR-2 pg/mL ± SEM MCF7 (VEGFR-2 [11]): 47.60 ± 0.6 pg/mL |
| CCN(CC)CCNC(=O)c1c(C)[nH]c(/C=C2\C(=O)Nc3ccc(F)cc32)c1C [Sunitinib, reference compound] | – | – | – | – | – | – | – | – | – | – | – | – | – | – | – | – | – | – | – | – | IC50 [12]: 16.9 µM; % Inhibition of the blood vessels in CAM test (CAM blood vessel network): 88.6%; Diameter of blood vessel (μm ± SEM) (CAM blood vessel network): 52.3 ± 1.7 μm |
